The results in this text go back to patent publication US20080003632A1, “Method for the In Vitro Determination of Cellular Uptake of Exogenous and Endogenous Substances Using Nmr Shift Agents and the Magic Angle Nmr Technique” (Bracco Imaging SpA, priority 2004, published 2008).

The test system of this data set is HRBC (Human Red Blood Cells). In words: Cellular uptake of acetylsalicylic acid in red blood cells by 1H HR-MAS NMR with shift agent Dy-BOPTA. In kind it is in vitro ADME. From the text:
Determination of Cellular Uptake of Acetylsalicylic Acid in Red Blood Cells
In this example, EXO=Acetylsalicylic acid; SA=Dy-BOPTA (Dy is the symbol of Dysprosium, one of the lanthanides known as shift agent).
The nucleus used to determine Acetylsalicylic acid cellular uptake is the proton.
The in vitro determination has been preformed on HRBC obtained by human blood treated as described below.
Centrifugation: the employed centrifuge was HERAEUS SEPATECH OMNIFUGE 2 ORS, rotor model 3360. Centrifugation was done at 2109 g (equivalent to 3500 rpm) at 4° C. for 15 minutes.
Living HRBC preparation: human blood (to which sodium citrate has been added as an anticoagulant) was centrifuged. After that, HRBC pellets were separated from serum and white cell interface, carefully obtaining a solution of red cells free of white cells; accordingly, red cells with 80% hematocrit were obtained.
Dy-BOPTA stock solution: a 0.1 M stock solution of Dy-BOPTA was used in all of the measurement to obtain the suitable [SA].
Acetylsalicylic acid stock solution: a 1 M stock solution of ASA containing 0.1 M of DSS (as internal standard for quantitative determination), was used in all of the measurements.
The solution was prepared by dissolving 180.16 mg of ASA and 23.63 mg of DSS in 200 ul of H2O, adding NaOH 2N until dissolution, lowering, if necessary, the pH to 7 with HCl 1N, then filling the volume to 1 ml. In this way two forms of ASA are generated that are below indicated as A and B.
Acetylsalicylic acid in HRBC: a sample containing 1 ml of HRBC (80% hematocrit), 100 μmoles of acetylsalicylic acid (i.e. 100 μl of acetylsalicylic acid stock solution) and 8 μmoles of Dy-BOPTA (i.e. 80 μl of Dy-BOPTA stock solution) was employed to measure the uptake of acetylsalicylic acid in HRBC.
Proton ^1H NMR spectra: all the ^1H NMR spectra have been acquired on a Bruker AMX 600 SB spectrometer at the frequency of 600.13 MHz. A multinuclear HR-MAS probehead with double bearing and 4 mm rotor with 12 μl spherical insert have been employed. Experimental conditions were: sample rotating speed=3500 Hz; spectra width=12,000 Hz (c.a. 20 ppm); time domain data points=128 K; number of scans=16; pulse length=11.7 μs; recycle delay=10 s; CPMG sequence; Fourier Transform by 0.5 Hz of enhancement multiplication function, sample temperature=25° C.
Proton spectra have been employed to determine acetylsalicylic acid cellular uptake, because ^1H is the sole nucleus present in acetylsalicylic acid having a high NMR sensitivity. […] Both of the two signals are marker^EXO signals.
The measurement of cellular uptake of acetylsalicylic acid by HRBC was calculated from the spectra reported in the enclosed FIG. 7.
Firstly, the ^1H NMR-MAS spectrum of HRBC was acquired (FIG. 7—trace a) in the absence of either acetylsalicylic acid (EXO) or of Dy-BOPTA (SA).
Then, 100 μl of acetylsalicylic acid 1M stock solution were added and the spectrum repeated (FIG. 7—trace b). In spectrum of trace b the two components for each signal A and B of the methyl group of acetylsalicylic acid were well visible, i.e. four peaks exist in the proton MAS-NMR spectrum. The splitting of signals A and B induces to suppose that the molecules of acetylsalicylic acid in the extra- and intra-cellular compartments are in magnetically different environments, i.e. the four observed signals corresponded to signals A e B into intra- and extra-cellular compartments, respectively.
Lastly, 80 μl of Dy-BOPTA stock solution were also added to the sample and the spectrum were again re-acquired (FIG. 7—trace c). […] Two components resulted unshifted with respect to the original marker^EXO signals while the other two components were shifted.
Acetylsalicylic acid corresponding to the unshifted marker^EXO signals is ACETYLSALICYLIC ACIDCC≠SA, i.e. acetylsalicylic acid in the intra-cellular compartment. […]

With `CC(=O)Oc1ccccc1C(=O)O` [acetylsalicylic acid], the “% of cellular uptake of acetylsalicylic acid A” value (form A, HRBC) is on record as 3.04%. Besides, the “concentration of acetylsalicylic acid o (A)” value (form A, extracellular fluid volume 0.38 ml) is reported as 154.10 mM. Further, where the note is “form A, extracellular, 1 ml HRBC 80% hematocrit, 100 μmoles ASA added, 8 μmoles Dy-BOPTA, 25° C.”, the “μmoles acetylsalicylic acid o (A), amount in extra-cellular compartment” value was found to be 58.56 µmol. The “concentration of acetylsalicylic acid i (A)” value (form A, intracellular fluid volume 0.8 ml) is given as 4.83 mM. The “μmoles acetylsalicylic acid i (A), amount in intra-cellular compartment” value (form A, intracellular, 1 ml HRBC 80% hematocrit, 100 μmoles ASA added, 8 μmoles Dy-BOPTA, 25° C.) stood at 3.87 µmol. Besides, the “[acetylsalicylic acid]o/[acetylsalicylic acid]i (A)” value (form A, ratio of extra- to intra-cellular concentration) was found to be 31.90. Besides, for the setting “form B, HRBC”, the “% of cellular uptake of acetylsalicylic acid B” value is reported as 10.40%. Moreover, the “concentration of acetylsalicylic acid o (B)” value (form B, extracellular fluid volume 0.38 ml) is 79.44 mM. In addition, under “form B, extracellular, 1 ml HRBC 80% hematocrit, 100 μmoles ASA added, 8 μmoles Dy-BOPTA, 25° C.”, the “μmoles acetylsalicylic acid o (B), amount in extra-cellular compartment” value is 30.19 µmol. Besides, the “concentration of acetylsalicylic acid i (B)” value (form B, intracellular fluid volume 0.8 ml) is recorded as 9.22 mM. In addition, the “μmoles acetylsalicylic acid i (B), amount in intra-cellular compartment” value (form B, intracellular, 1 ml HRBC 80% hematocrit, 100 μmoles ASA added, 8 μmoles Dy-BOPTA, 25° C.) was 7.38 µmol. Where the note is “form B, ratio 79.44/9.22 of extra- to intra-cellular concentration”, the “[acetylsalicylic acid]o/[acetylsalicylic acid]i (B)” value is 8.61. The “% of cellular uptake of total acetylsalicylic acid” value (forms A + B, HRBC) is listed as 5.67%.
